In patent publication US20200069592A1, “HSP90 INHIBITOR ORAL FORMULATIONS AND RELATED METHODS” (Samus Therapeutics, Inc., priority 2017, published 2020):

Experiments:
[1] = Plasma pharmacokinetics after single oral dose in ORA-Plus or SyrSpend SF (Example 6), LC-MS/MS; assay type: in vivo, Sprague Dawley rats; details: for AUC % Extrap / Cl_F / Vz_F / AUC(0-inf) / AUC(0-t) / Cmax / Tmax / half-life: rat plasma; for % AUC0-last test vs reference: rats, ratio of group averages; for AUC(0-inf) / AUC(0-t) / Cmax / Tmax / half-life: female, rat, plasma, po
[2] = Particle size distribution (Cilas 1180) of as-received and jet milled API (Example 8); assay type: physicochemical
Protocol: Compound 2 API ‘as-received’ (Lots #2064-118-8, #2064-146-9, and # BPR-WS 1828-194D(2HCl)—B1-19) were analyzed for PSD on a Cilas 1180 particle size analyzer. Subsequently jet milled API batches B # L0441-20-JM51mmP1, B # L0441-20-JM51mmP2, B # L0441-20-JM51mmP3, and B # L0441-84-JM146mmP1 were also analyzed for PSD Approximately 50 mg Compound 2-2HCl was dispersed into 40 mL 0.2% (w/w) span 80 in n-hexanes (dispersant) and allowed to mix for 60 minutes. API was kept suspended in dispersant via stirring and sonication during test.
A jet milling study was performed on a batch of Compound 2 2HCl with jet mill Fluid Energy Asset #00170 outfitted with a 51 mm collection loop. Batches B # L0441-29-JM51mmP1, B # L0441-29-JM51mmP2, and B # L0441-29-JM51mmP3 were created from ˜10 g of Compound 2 lot # BPR-WS1828-194D(2HCl)-B1-19 subjected to 3 passes. Jet mill settings for grinder nozzle and pusher nozzle as follows: Pass 1 grinder nozzle=60 psi & pusher nozzle=80 psi, Pass 2 and 3 grinder nozzle=50 psi & pusher nozzle=70 psi.
After successfully jet milling on the R&D scale, B # L0441-84-JM146mmP1 was created from Compound 2-2HCl lot # BPR-17-87-B1-21d which was processed with a single pass to confirm GMP scale up conditions in the R&D laboratory by passing 85 g through the GMP jet mill Jet-O-Mizer Asset #01 16 Model 0101 outfitted with 146 mm collection loop using a standard nylon 4×48-inch collection sock inside a PTFE 4×48-inch sock to minimize fines loss. The pressure settings for the grinder and pusher nozzle were: Grinder nozzle 60 psi, Pusher nozzle 70 psi.

[3] = Solubility of the 2HCl salt in dosing vehicle (Example 6); assay type: physicochemical; details: SyrSpend SF Solution (dosing vehicle), aqueous with cosolvent or surfactant or cyclodextrin; pH ~2.5
Text: Dose levels of Compound 2 were based on the free base, not the salt. […] Dosage forms of Compound 2 2HCl in ORA-Plus® and in SyrSpend® SF Cherry appeared to be suspension instead of clear solutions. Final physical appearance matched that of the vehicle used. Due to opaque properties of vehicles, full solubility could not be confirmed. However, resultant dosing material appeared homogenous. Dosage forms of Compound 2 2HCl in ORA-Plus® and in SyrSpend® SF Cherry were made fresh immediately prior to use.

[4] = G3: 2HCl, 24 mg/kg single oral dose, ORA-plus
[5] = G4: 2HCl, 48 mg/kg single oral dose, ORA-plus
[6] = G9: 2HCl, 24 mg/kg single oral dose, SyrSpend
[7] = G10: 2HCl, 48 mg/kg single oral dose, SyrSpend, n = 2
[8] = G11: 2HCl, 60 mg/kg single oral dose, SyrSpend, n = 4
[9] = Sprague Dawley, 24 mg/kg, G3: 2HCl, 24 mg/kg single oral dose, ORA-plus
[10] = Sprague Dawley, 24 mg/kg, G9: 2HCl, 24 mg/kg single oral dose, SyrSpend
[11] = Sprague-Dawley, 24 mg/kg, G9: 2HCl, 24 mg/kg single oral dose, SyrSpend
[12] = Sprague-Dawley, 48 mg/kg, G4: 2HCl, 48 mg/kg single oral dose, ORA-plus
[13] = Sprague-Dawley, 48 mg/kg, G10: 2HCl, 48 mg/kg single oral dose, SyrSpend
[14] = Sprague-Dawley, 60 mg/kg, G11: 2HCl, 60 mg/kg single oral dose, SyrSpend
[15] = Lot 2064-118-8, API as received
[16] = Lot 2064-146-9, API as received
[17] = Lot BPR-17-87-B1-21d, API as received
[18] = Lot BPR-17-87-B1-21d, jet milled batch B#L0441-84-JM146mmP1
[19] = Lot BPR-WS1828-194D(2HCL)-B1-19, API as received
[20] = Lot BPR-WS1828-194D(2HCL)-B1-19, jet milled batch B#L0441-20-JM51mmP1
[21] = Lot BPR-WS1828-194D(2HCL)-B1-19, jet milled batch B#L0441-20-JM51mmP2
[22] = Lot BPR-WS1828-194D(2HCL)-B1-19, jet milled batch B#L0441-20-JM51mmP3

SMILES: CC(C)(C)CNCCn1c(Sc2cc3c(cc2I)OCO3)nc2c(N)ncnc21 [Compound 2 2HCl]
- AUC % Extrap [1, 4]: 4.00 ± 1.84%
- Cl_F [1, 4]: 357.3 ± 155 mL/min/kg
- Vz_F [1, 4]: 81.00 ± 80.22 L/kg
- AUC % Extrap [1, 5]: 1.32 ± 2.64%
- Cl_F [1, 5]: 154 ± 76.5 mL/min/kg
- Vz_F [1, 5]: 28.42 ± 13.10 L/kg
- AUC % Extrap [1, 6]: 4.72 ± 4.49%
- Cl_F [1, 6]: 405.8 ± 204.3 mL/min/kg
- Vz_F [1, 6]: 129.96 ± 81.45 L/kg
- AUC % Extrap [1, 7]: 2.05 ± 0.35 %
- Cl_F [1, 7]: 124 ± 23 mL/min/kg
- Vz_F [1, 7]: 45.95 ± 8.11 L/kg
- AUC % Extrap [1, 8]: 0.68 ± 0.89 %
- Cl_F [1, 8]: 219.2 ± 72.5 mL/min/kg
- Vz_F [1, 8]: 55.47 ± 25.73 L/kg
- % AUC0-last test vs reference ([1]; Group 3 (24 mg/kg 2HCl ORA-plus) vs Group 9 (24 mg/kg 2HCl SyrSpend)): 109.55%
- % AUC0-last test vs reference ([1]; Group 4 (48 mg/kg 2HCl ORA-plus) vs Group 10 (48 mg/kg 2HCl SyrSpend)): 73.71%
- % AUC0-last test vs reference ([1]; Group 9 (24 mg/kg 2HCl SyrSpend) vs Group 10 (48 mg/kg 2HCl SyrSpend)): 13.71%
- % AUC0-last test vs reference ([1]; Group 9 (24 mg/kg 2HCl SyrSpend) vs Group 11 (60 mg/kg 2HCl SyrSpend)): 24.05%
- % AUC0-last test vs reference ([1]; Group 10 (48 mg/kg 2HCl SyrSpend) vs Group 11 (60 mg/kg 2HCl SyrSpend)): 175.45%
- AUC(0-inf) [1, 9]: 1340 ± 678 ng·h/mL
- AUC(0-t) [1, 9]: 1290 ± 666 ng·h/mL
- Cmax [1, 9]: 407 ± 278 ng/mL
- Tmax [1, 9]: 1.6 ± 0.55 h
- half-life [1, 9]: 2.34 ± 1.76 h
- AUC(0-inf) [1, 10]: 1240 ± 717 ng·h/mL
- AUC(0-t) [1, 10]: 1180 ± 688 ng·h/mL
- AUC(0-t) ([1]; Sprague Dawley, 48 mg/kg, G10: 2HCl, 48 mg/kg single oral dose, SyrSpend): 8580 ± 2220 ng·h/mL
- AUC(0-inf) ([1]; Sprague Dawley, 48 mg/kg, G10: 2HCl, 48 mg/kg single oral dose, SyrSpend, n = 2): 6560 ± 1220 ng·h/mL
- AUC(0-t) ([1]; Sprague Dawley, 60 mg/kg, G11: 2HCl, 60 mg/kg single oral dose, SyrSpend): 4890 ± 1310 ng·h/mL
- AUC(0-inf) ([1]; Sprague Dawley, 60 mg/kg, G11: 2HCl, 60 mg/kg single oral dose, SyrSpend, n = 4): 4950 ± 1780 ng·h/mL
- Cmax [1, 11]: 270 ± 184 ng/mL
- Tmax [1, 11]: 1.2 ± 0.45 h
- half-life [1, 11]: 3.41 ± 1.24 h
- AUC(0-inf) [1, 12]: 6370 ± 3170 ng·h/mL
- AUC(0-t) [1, 12]: 6320 ± 3210 ng·h/mL
- Cmax [1, 12]: 1120 ± 429 ng/mL
- Tmax [1, 12]: 2.2 ± 1.1 h
- half-life [1, 12]: 2.18 ± 0.35 h
- Cmax [1, 13]: 1140 ± 311 ng/mL
- Tmax [1, 13]: 4 ± 1.41 h
- half-life ([1]; Sprague-Dawley, 48 mg/kg, G10: 2HCl, 48 mg/kg single oral dose, SyrSpend, n = 2): 4.28 ± 0.04 h
- Cmax [1, 14]: 825 ± 247 ng/mL
- Tmax [1, 14]: 2.6 ± 1.34 h
- half-life ([1]; Sprague-Dawley, 60 mg/kg, G11: 2HCl, 60 mg/kg single oral dose, SyrSpend, n = 4): 2.84 ± 0.83 h
- Particle size distribution d10 [2, 15]: 12.0 μm
- Particle size distribution d50 [2, 15]: 42.8 μm
- Particle size distribution d90 [2, 15]: 131.6 μm
- Particle size distribution d10 [2, 16]: 8.4 μm
- Particle size distribution d50 [2, 16]: 23.0 μm
- Particle size distribution d90 [2, 16]: 57.7 μm
- Particle size distribution d10 [2, 17]: 11.6 μm
- Particle size distribution d50 [2, 17]: 35.7 μm
- Particle size distribution d90 [2, 17]: 98.3 μm
- Particle size distribution d10 [2, 18]: 1.9 μm
- Particle size distribution d50 [2, 18]: 3.9 μm
- Particle size distribution d90 [2, 18]: 8.0 μm
- Particle size distribution d10 [2, 19]: 11.0 μm
- Particle size distribution d50 [2, 19]: 33.1 μm
- Particle size distribution d90 [2, 19]: 83.0 μm
- Particle size distribution d10 [2, 20]: 3.1 μm
- Particle size distribution d50 [2, 20]: 7.9 μm
- Particle size distribution d90 [2, 20]: 17.3 μm
- Particle size distribution d10 [2, 21]: 2.3 μm
- Particle size distribution d50 [2, 21]: 5.6 μm
- Particle size distribution d90 [2, 21]: 11.7 μm
- Particle size distribution d10 [2, 22]: 2.0 μm
- Particle size distribution d50 [2, 22]: 4.8 μm
- Particle size distribution d90 [2, 22]: 10.1 μm
- solubility [3]: 20 to 25 mg/mL
